Test results from US5010058A, “3,5,6-substituted derivatives of 1,2-O-isopropylidene-α,D-glucofuranose and intermediates for preparing these derivatives” (501 Greenwich Pharmaceuticals Incorporated, priority 1989, dated 1991).
Like-named read-outs stand apart in the source and are kept apart here.

System: normal spleen cells / splenic T-lymphocytes (Con-A stimulated)
Experiment: Con-A blastogenic response of normal spleen cells (3H-thymidine incorporation)
Format: cell-based, mouse (C57Bl/6)
Details: for Blastogenic response of normal spleen cells to Con-A: triplicates ± SD; for inhibition at 1 µg/mL / inhibition at 10 µg/mL / inhibition at 25 µg/mL / inhibition at 100 µg/mL / inhibition at 300 µg/mL / inhibition at 750 µg/mL: Mus musculus, T-lymphocyte, 72 h, read-out: Blastogenic response of normal spleen cells to Con-A, % effect; for inhibition at 1 µg/mL / inhibition at 10 µg/mL / inhibition at 25 µg/mL / inhibition at 100 µg/mL / inhibition at 300 µg/mL / inhibition at 750 µg/mL / Blastogenic response of normal spleen cells to Con-A; % effect: percent change from no compound; for Blastogenic response of normal spleen cells to Con-A; % effect: 4320 min
From the text: A simple method is used to screen compounds for their ability to modulate T-lymphocyte activity which comprises assessing the capacity of the compounds to alter the activation of murine spleen cells in response to T-lymphocyte mitogen activators, such as concanavalin-A (Con-A). The method used to measure the effects of the compounds of the present invention on the blastogenic response of spleen cells to the T-lymphocyte mitogen, (i.e., Con-A), is as follows.
Spleen cells were removed from normal C57Bl/6 mice and homogenized to obtain a single cell suspension. Erythrocytes were lysed by hypotonic shock. Upon determination of the viability and concentration of the remaining lymphoid cells, they were adjusted to a concentration of 4×10^6 /ml. These spleen cells (2×10^5 cells per […]) were seeded into wells of microtiter plates with the compounds of the present invention having the following dose concentrations:
Con-A was also added to these cultures at a final concentration of […]. These cells were cultured for 3 days at 37° C. in a humidified atmosphere of 5% CO2 in air. For the last 18 hours of culture, […] H-thymidine was added to each well. The cells were then precipitated by a multichannel harvester. The amount of ^3 H-thymidine incorporated by the cultured cells were measured in a liquid scintillation counter (Disintegrations per min., DPM). All assays were conducted in triplicate.
The incubation medium used for the blastogenesis assays was RPMI-1640 medium containing 10% fetal bovine serum, […] streptomycin, 100 U/ml penicillin, […] Hepes buffer solution, 5×10^-5 M 2-mercaptoethanol and 2 mM glutamine.
^a Experimental compounds were first suspended in DMSO or ethanol,
^b The effect of experimental compounds on the blastogenic response o

[1] = Con-A 1 ug/ml, compound 1 ug/ml
[2] = Con-A 1 ug/ml, compound 10 ug/ml
[3] = Con-A 1 ug/ml, compound 25 ug/ml
[4] = Con-A 1 ug/ml, compound 100 ug/ml
[5] = Con-A 1 ug/ml, compound 300 ug/ml
[6] = Con-A 1 ug/ml, compound 750 ug/ml
[7] = Con-A 4 ug/ml, compound 1 ug/ml
[8] = Con-A 4 ug/ml, compound 10 ug/ml
[9] = Con-A 4 ug/ml, compound 25 ug/ml
[10] = Con-A 4 ug/ml, compound 100 ug/ml
[11] = Con-A 4 ug/ml, compound 300 ug/ml
[12] = Con-A 4 ug/ml, compound 750 ug/ml

SMILES | Blastogenic response of normal spleen cells to Con-A [1] | Blastogenic response of normal spleen cells to Con-A [2] | Blastogenic response of normal spleen cells to Con-A [3] | Blastogenic response of normal spleen cells to Con-A [4] | Blastogenic response of normal spleen cells to Con-A [5] | Blastogenic response of normal spleen cells to Con-A [6] | Blastogenic response of normal spleen cells to Con-A [7] | Blastogenic response of normal spleen cells to Con-A [8] | Blastogenic response of normal spleen cells to Con-A [9] | Blastogenic response of normal spleen cells to Con-A [10] | Blastogenic response of normal spleen cells to Con-A [11] | Blastogenic response of normal spleen cells to Con-A [12] | inhibition at 1 µg/mL [1] [%] | inhibition at 10 µg/mL [2] [%] | inhibition at 25 µg/mL [3] [%] | inhibition at 100 µg/mL [4] [%] | inhibition at 300 µg/mL [5] [%] | inhibition at 750 µg/mL [6] [%] | inhibition at 1 µg/mL [7] [%] | inhibition at 10 µg/mL [8] [%] | other results
CCCCCCCOC(C)C1OC2OC(C)(C)OC2C1O [Ex. 5, 1,2-O-Isopropylidene-5-O-n-heptyl-6-deoxy α, D-glucofuranose] | 91,612 ± 15,530 cpm | 79,822 ± 15,967 cpm | 63,177 ± 13,102 cpm | 8,553 ± 9,274 cpm | 8,698 ± 786 cpm | 9,487 ± 7,951 cpm | 116,377 ± 12,433 cpm | 92,190 ± 13,256 cpm | 62,068 ± 3,736 cpm | 2,299 ± 490 cpm | 5,932 ± 2,770 cpm | 4,494 ± 2,952 cpm | -27 | -11 | 13 | 88 | 88 | 87 | -20 | 5 | inhibition at 25 µg/mL [9]: 36%; inhibition at 100 µg/mL [10]: 98%; inhibition at 300 µg/mL [11]: 94%; inhibition at 750 µg/mL [12]: 95%
CCCCCCCOC(C)C1OC2OC(C)(C)OC2C1OCCCN(C)C [Ex. 6, 1,2-O-Isopropylidene-3-O-3'-(N'-N'-dimethylaminopropyl)-5-O-n-heptyl-6-deoxy-α,D-glucofuranose] | 86,406 ± 16,348 cpm | 12,670 ± 6,997 cpm | 5,399 ± 3,253 cpm | 6,597 ± 2,887 cpm | 3,693 ± 340 cpm | 3,709 ± 281 cpm | 75,689 ± 8,498 cpm | 4,693 ± 1,930 cpm | 6,187 ± 6,859 cpm | 6,741 ± 4,224 cpm | 3,756 ± 923 cpm | 2,933 ± 1,383 cpm | -20 | 82 | 93 | 91 | 95 | 95 | 22 | 95 | inhibition at 25 µg/mL [9]: 94%; inhibition at 100 µg/mL [10]: 93%; inhibition at 300 µg/mL [11]: 96%; inhibition at 750 µg/mL [12]: 97%
CCCCCCCNCC(O)C1OC2OC(C)(C)OC2C1OCCCCCCC [Ex. 4, 1,2-O-Isopropylidene-3-O-(n-heptyl)-6-deoxy-6-aminoheptyl-α, D-glucofuranose] | 22,026 ± 9,838 cpm | 3,406 ± 422 cpm | 3,575 ± 827 cpm | 5,241 ± 2,071 cpm | 9,102 ± 6,857 cpm | 3,762 ± 1,201 cpm | 41,151 ± 9,885 cpm | 7,789 ± 7,636 cpm | 13,114 ± 8,696 cpm | 7,102 ± 6,851 cpm | 4,919 ± 645 cpm | 3,128 ± 99 cpm | 70 | 95 | 95 | 93 | 87 | 95 | 58 | 92 | inhibition at 25 µg/mL [9]: 86%; inhibition at 100 µg/mL [10]: 93%; inhibition at 300 µg/mL [11]: 95%; inhibition at 750 µg/mL [12]: 97%
CCCCCCCNC[C@H]1OC(C)(C)O[C@@H]2[C@H]3OC(C)(C)O[C@H]3O[C@@H]21 [Ex. 1, 1,2:3,5-Di-O-isopropylidene-6-deoxy-6-aminoheptyl-α, D-glucofuranose] | 93,328 ± 15,583 cpm | 53,439 ± 9,464 cpm | 26,920 ± 10,528 cpm | 10,705 ± 9,501 cpm | 5,398 ± 4,008 cpm | 19,688 ± 7,148 cpm | 116,263 ± 2,521 cpm | 32,032 ± 1,999 cpm | 6,201 ± 1,410 cpm | 4,880 ± 3,619 cpm | 3,097 ± 573 cpm | 2,089 ± 35 cpm |  |  |  |  |  |  |  |  | Blastogenic response of normal spleen cells to Con-A; % effect [1]: +29%; Blastogenic response of normal spleen cells to Con-A; % effect [2]: -26%; Blastogenic response of normal spleen cells to Con-A; % effect [3]: -63%; Blastogenic response of normal spleen cells to Con-A; % effect [4]: -85%; Blastogenic response of normal spleen cells to Con-A; % effect [5]: -93%; Blastogenic response of normal spleen cells to Con-A; % effect [6]: -87%; Blastogenic response of normal spleen cells to Con-A; % effect [7]: +20%; Blastogenic response of normal spleen cells to Con-A; % effect [8]: -67%; Blastogenic response of normal spleen cells to Con-A; % effect [9]: -94%; Blastogenic response of normal spleen cells to Con-A; % effect [10]: -95%; Blastogenic response of normal spleen cells to Con-A; % effect [11]: -97%; Blastogenic response of normal spleen cells to Con-A; % effect [12]: -98%
